Values quoted from earlier work in patent publication US11219662B2, “Methods for treating hypotension in a patient that has received an ACE inhibitor by administering angiotensin II” (La Jolla Pharma, LLC, priority 2016, dated 2022).

Settings: no experiment described

## CC[C@H](C)[C@H](NC(=O)[C@H](Cc1ccc(O)cc1)NC(=O)[C@@H](N)C(C)C)C(=O)N[C@@H](Cc1cnc[nH]1)C(=O)N1CCC[C@H]1C(=O)N[C@@H](Cc1ccccc1)C(=O)O [Angiotensin IV, Val-Tyr-Ile-His-Pro-Phe]
Qualitative background statement
  activity compared with angiotensin II: less activity than angiotensin II

## Arg-Val-Tyr-Ile-His-Pro-Phe (RVYIHPF; printed: Arg-Val-Tyr-Ile-His-Pro-Phe) [Angiotensin III]
Of the activity of angiotensin II, background statement
  activity relative to the activity of angiotensin II: approximately 40%
